Consider 1 molecule from PMC4841536, “Characterization of the Anti-HCV Activities of the New Cyclophilin Inhibitor STG-175” (PLoS ONE, 2016).

For assay [1], the system named is HCV GT1b subgenomic replicon pFK-I389/NS3-3’. Put plainly: Luciferase reporter replicon antiviral assay, GT1b. The format is cell-based. Conditions: Hepatitis C virus. How it is done: The anti-HCV activity of STG-175 was conducted using a panel of luciferase reporter replicon cell lines including GT1a, GT1b, GT2a, GT3a and GT4a as we described previously. The GT1a subgenomic renilla luciferase reporter replicon H77 RLucP (7) was supplied by Dr. Delaney. The GT1b subgenomic firefly luciferase reporter replicon pFK-I389/NS3-3’ [29] was supplied by Dr. Bartenschlager. The GT1B subgenomic NS3, NS5A and NS5B mutants were created via homologous recombination using the In-Fusion HD Cloning kit (Clontech) as we described previously. The GT2a genomic luciferase reporter replicon Luc-Neo-JFH-1 was generated as previously. The plasmid pFK-Luc-JFH1 was supplied from Drs. Wakita and Pietschmann and the XbaI site in the firefly luciferase gene and the NotI site in the EMCV IRES were used to take the Luciferase/Ubiquitin-NPT II (the neomycin phosphotransferase II gene) fusion cassette out of pFK389ILuc-Neo (wild-type replicon from GT1b) and inserted into the pFK-Luc-JFH1 plasmid, generating full-length Luc-Neo-JFH-1 [30]. The GT3a subgenomic firefly luciferase reporter replicon S52/SG-Feo (AI) and the GT4a subgenomic firefly luciferase reporter replicon ED43/SG-Feo [33] were supplied by Drs. Rice and Bukh. Replicons were stably expressed in Huh7.5 or Huh7.5.1 cells under G418 selection. On Day 1, cells (5,000) were plated into 96-well plates in complete DMEM containing 10% FCS. On Day 2, increasing drug concentrations were added to wells. On Day 5, 72 h post-drug addition, medium was removed and replaced with 100 μL of fresh medium. Hundred μL of the fluorogenic, cell-permeant peptide substrate glycyl-phenylalanyl-amino fluorocoumarin was added to wells as per manufacturer’s recommendation (Promega Corp, Madison, WI). The CellTiter-Fluor™ Cell Viability Assay is a non-lytic fluorescence assay, which measures the number of live cells. […] Medium was removed, cells washed and lysed in 20 μL of Cell Culture Lysis Reagent. Luciferase activity was determined using the Luciferase Assay System (Promega) in a Berthold luminometer. The alamarBlue® assay (Thermo Fischer Scientific) was used to measure CC50s for STG-175 on replicon cell lines. When cells are alive they maintain a reducing environment within the cytosol of the cell. […] Upon entering cells, resazurin is reduced to resorufin, a compound that is red in color and highly fluorescent. Viable cells continuously convert resazurin to resorufin, increasing the overall fluorescence and color of the media surrounding cells.
Fig 2 Anti-HCV activities of STG-175 among GTs. A. Replicon-containing cells (5,000) were exposed to increasing concentrations of the indicated drugs. Seventy-two hours post-drug addition, the fluorogenic, cell-permeant peptide substrate glycyl-phenylalanyl-amino fluorocoumarin was added to measure the number of live cells. […] Luciferase activity was determined using the Luciferase Assay System in a Berthold luminometer. B. A similar experiment was conducted with the GT1b replicon cell line in 0, 5, 10, 20 and 40% of human serum. Data are expressed as mean of relative light units and calculated EC50s are presented. […] C.

Assay [2] has as its system Con1 (GT1b) replicon colonies A, B, C (D320E NS5A). Briefly: microbe, parasite or virus in culture. The format is cell-based, hepatitis C virus. The settings on record: for EC50: Hepatitis C virus, GT1B. How it is done: (§1) Huh-7 cells expressing subgenomic Con1 (GT1b) replicon were incubated with STG-175 and 100 μg/ml of G418 in 10 cm CellBIND™ plates (Corning). Cells were split every 3 days at 1:6 and G418 concentration was increased sequentially to 200 and 300 μg/mL. […] At this point, medium was changed every 3–4 days until emergence of resistant clones. Clones were individually transferred to 24-well CellBIND using cloning disks. […] Each clone was split in 2 identical plates and was separately maintained under 0.5 or 1.0 μM STG-175 and 100 μg/mL of G418. Once the colonies were established, G418 concentration was increased to 300 μg/mL. […] Briefly, total RNA was prepared using the RNeasy Plus Mini Kit as per manufacturer’s recommendation. Two hundred ng of total RNA was used for cDNA production using primers specific to the NS3-NS5B region or oligo(dT)18 using AccuScript High Fidelity 1st Strand cDNA Synthesis Kit (Stratagene). Amplicons were generated using primers defining the sequence at its 5’ and 3’ ends. The amplicons were gel purified, quantitated and sequenced using primers located internally in NS5A or NS5B reading to the 5’ and 3’ ends. Sequences were assembled and analyzed using the ClustalW algorithm within the MacVector program. The sequencing was conducted twice to ensure the authenticity of the nucleotide substitutions.
(§2) Fig 3 Replicon clearance, replication rebound and resistance analyses. […] Then drugs were removed to allow viral replication rebound to occur. At each passage, samples of cells were collected, RNA extracted and analyzed by RT-PCR for HCV RNA levels. B. Emergence of resistance: Con1 replicon Huh-7 cells were passaged 22 times in the absence or presence of STG-175 or selected DAAs. At each passage, sample of cells were collected, RNA extracted and analyzed by RT-PCR for HCV RNA levels. C. […] Data are expressed as number of HCV RNA copies per cell. […] Data are expressed as mean of relative light units and calculated EC50s are presented. […] E. Degree of resistance of D320E and Y321N Con1 variants: Left panel. Wild-type (WT), D320E and D320/Y321N NS5A Con1 RNA were electroporated into Huh7.5.1 cells and replication monitored over 8 days by quantifying the levels of intracellular HCV RNA. Right panel. Same as just above except that increasing concentrations of STG-175 were added at the time of the electroporation. […] STG-175 is taken as the substance from the printed x-axis title 'STG-175 in Log nM'.
(§3) We then sequenced the NS3-NS5B region of the HCV variants (colonies), which emerged after multiple passages under STG-175 selection. […] The five STG-175-resistant variants (5 colonies A to E) were then retested for STG-175 resistance by exposing them to increasing concentrations of STG-175 as we described previously.

The subject of assay [3] is Con1 (GT1b) replicon colonies D, E (D320E/Y321N NS5A). Briefly: microbe, parasite or virus in culture. The format is cell-based, hepatitis C virus. The settings on record: for EC50: Hepatitis C virus, GT1B. Here is the method:
as §1, §2, §3

The structures appear in SMILES notation. Like-named read-outs stand apart in the source and are kept apart here.

The term EC50 denotes the concentration at which the effect is half-maximal. For the molecule `CC=CCC(C)C(O)C1C(=O)NC(CC)C(=O)N(C)C(CSCCCCO)C(=O)N(C)C(CC(C)(C)O)C(=O)NC(C(C)C)C(=O)N(C)C(CC(C)C)C(=O)NC(C)C(=O)NC(C)C(=O)N(C)C(CC(C)C)C(=O)N(C)C(CC(C)C)C(=O)N(C)C(C(C)C)C(=O)N1C` (centres unmarked) [STG-175], the EC50 in assay [1] (0% human serum, read-out: EC50 GT1b in human serum) was found to be 16 nM; in assay [1] (5% human serum, read-out: EC50 GT1b in human serum), 15 nM; in assay [1] (10% human serum, read-out: EC50 GT1b in human serum), 18.8 nM; in assay [1] (20% human serum, read-out: EC50 GT1b in human serum), 22.2 nM; in assay [1] (40% human serum, read-out: EC50 GT1b in human serum), 37.2 nM; in assay [1] (72 h, 72 h post-drug addition, luciferase, read-out: EC50 GT1b), 15.1 nM. Besides, the EC50 came out at 114 nM in assay [2] (read-out: EC50, colony A (Clone A)); 122 nM in assay [2] (read-out: EC50, colony B (Clone B)); 238 nM in assay [2] (read-out: EC50, colony C (Clone C)); 158 nM in assay [2] (read-out: average EC50, colonies A, B and C); 766 nM in assay [3] (read-out: EC50, colony D (Clone D)); 297 nM in assay [3] (read-out: EC50, colony E (Clone E)). In assay [3] (read-out: average EC50, colonies D and E), the EC50 was found to be 531 nM. Also, the “average fold higher resistance than wild-type colonies, colonies A, B and C” value in assay [2] is recorded as 10 fold. In assay [2], the “enhancement of resistance compared to wild-type replicon, colony A” value came out at 7.2 fold. For the same molecule, the “enhancement of resistance compared to wild-type replicon, colony B” value in assay [2] is reported as 7.8 fold. Moreover, the “enhancement of resistance compared to wild-type replicon, colony C” value in assay [2] turned out to be 15.1 fold. Besides, the “average fold higher resistance than wild-type colonies, colonies D and E” value in assay [3] is given as 33.8 fold. Also, the “enhancement of resistance compared to wild-type replicon, colony D” value in assay [3] was 48.8 fold. Also, the “enhancement of resistance compared to wild-type replicon, colony E” value in assay [3] came to 18.9 fold.
